The assay deals with 186277-243-T-J2-PDC complex spheroid viability. Briefly: Anticancer human tumor 186277-243-T-J2-PDC patient-derived colon adenocarcinoma cell line growth inhibition [GQUAD]. Particulars: for viability, T/C: stronger effect = lower value. From the text: DNA G-quadruplex Stabilizer Agents in Combinations in Complex Spheroids
A high-throughput screen of multi-cell type tumor spheroids was designed to identify active combinations of DNA G-quadruplex stabilizer agents and targeted small molecules. Complex spheroids include a stromal component modeled by human endothelial cells (HUVEC) and fibroblasts modeled by human mesenchymal stem cells (MSCs). The concentration ranges selected for each drug and investigational agent were based upon clinically achievable concentrations if the clinical Cmax of the agent was known.
Compounds. The drugs and investigational agents: pidnarulex (CX-5461; NSC782164), APTO-253 (NSC789042), BRACO-19 (NSC847499), peposertib (NSC802822), ceralasertib (NSC780249), elimusertib (NSC800525), camonsertib (NSC841442), AZD-1390 (NSC803789), olaparib (NSC753686), talazoparib (NSC767125), ART-558 (NSC835418), sotorasib (NSC818433), MRTX-1133 (NSC836407), SN-38 (NSC673596), topotecan (NSC609699), etoposide (NSC141540), doxorubicin (NSC123127), gemcitabine (NSC613327), 5-fluorouracil (NSC19893), paclitaxel (NSC125973), vemurafenib (NSC761431), panobinostat (NSC761190), R-306465 (JNJ-16241199; NSC773264), adavosertib (NSC754352), TP-3654 (NSC805149), carboplatin (NSC241240), KSQ-4279 (NSC840948), and staurosporine (NSC755774) were obtained from the National Cancer Institute (NCI) Developmental Therapeutics Program Chemical Repository (34). The FDA-approved anticancer drug set is available from the NCI Developmental Therapeutics Program. […] The stock solutions were prepared in dimethyl sulfoxide (DMSO, Sigma-Aldrich, St. Louis, MO, cat. D2650) at 800-fold the tested concentration and stored at -70 degrees C prior to their use. All drugs and investigational agents were tested over a range starting from a high concentration at or near the clinical Cmax and decreasing in half-log increments. If the clinical Cmax for an agent had not been determined, the highest concentration tested was 10 microM.
2.3 Cell Culture. All cells were maintained in an incubator at 37 degrees C and 5% CO2 with 95% humidity. The PDC lines were cultured according to standard operating procedures established by the NCI PDMR. All PDCs were thawed and cultured in Matrigel-coated flasks prepared with a working solution of 1X Ham's F-12 nutrient mix, without supplementation (Invitrogen, cat. 11765054), 100 U/mL penicillin-streptomycin (Invitrogen, cat. 15140122), and 2.5% Matrigel (Corning Inc., cat. 354248) for the first three passages. The 857933-349-R-J2-PDC line was cultured in 6C/Colon 1B media, which includes advanced DMEM/F-12 (Thermo Fisher Scientific, cat. 12634028), 10 mM HEPES (Thermo Fisher Scientific, cat. 15630080), 1X GlutaMAX supplement (Thermo Fisher Scientific, cat. 35050061), 0.1 mg/mL primocin (InvivoGen, cat. ant-pm-2), 10% defined fetal bovine serum, heat inactivated (HyClone Laboratories Inc., cat. SH30070.03HI), 50% L-WRN conditioned media (ATCC, cat. CRL-3276), 1.25 mM N-Acetyl-L-cysteine (Sigma-Aldrich, cat. A9165), 10 mM nicotinamide (Sigma-Aldrich, cat. N0636), 1X B-27 supplement (Thermo Fisher Scientific, cat. 17504044), 1X N-2 supplement (Thermo Fisher Scientific, cat. 17502048), 10 microM Y-27632 dihydrochloride (Tocris Bioscience, cat. 1254), and 50 ng/mL human EGF recombinant protein (Thermo Fisher Scientific, cat. PHG0311). The 485176-168-R4-J1-PDC line was cultured in Panc media, which includes all 6C/Colon 1B media components plus 100 ng/mL human FGF-10 (Thermo Fisher Scientific, cat. 100-26), 500 nM SB-431542 (Selleckchem, cat. S1067), and gastrin (Tocris, cat. 3006).
[…]

Values joined by “and” are separate entries in the source; they are usually repeats but may differ in a detail not shown here. Equal entries are not always repeated.

The viability, T/C is the ratio of treated to control. The term IC50 denotes the midpoint of a concentration-inhibition curve.
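Further: spheroids exposed to drugs for 7 days.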

With `COc1cc(C2c3cc4c(cc3C(OC3OC5COC(C)OC5C(O)C3O)C3COC(=O)C23)OCO4)cc(OC)c1O` (stereo not drawn), the viability, T/C (compound 0.0316 µM) is 103% and 110% and 100%; the viability, T/C (compound 0.1 µM) was 100% and 101% and 85.4%; the viability, T/C (compound 0.316 µM) is 102% and 83.6% and 82.1%; the viability, T/C (compound 1 µM) is 72.1% and 50.7% and 50%; the viability, T/C (compound 3.16 µM) was 52.7% and 37% and 36.2%; the viability, T/C (compound 10 µM) is 19.4% and 20.9% and 16.9%. Moreover, for the setting “curve of compound”, the IC50 is 3130 nM and 1270 nM and 1310 nM.
On to `Nc1ccn(C2OC(CO)C(O)C2(F)F)c(=O)n1` (stereo not drawn) + Cc1[nH]c2ccc(F)cc2c1-c1nc2c3cccnc3c3ncccc3c2[nH]1, for which the IC50 (curve of first compound, second compound 0.0316 µM) is under 31.6 nM; the IC50 (curve of first compound, second compound 0.1 µM) was under 31.6 nM; the half-inhibitory concentration (IC50) (curve of first compound, second compound 0.316 µM) is under 31.6 nM; the IC50 (curve of first compound, second compound 1 µM) was under 31.6 nM; the IC50 (curve of first compound, second compound 3.16 µM) is under 31.6 nM; the IC50 (curve of first compound, second compound 10 µM) is under 31.6 nM. In addition, the viability, T/C (second compound 0.0316 µM, first compound 0.0316 µM) is 21.6%; the viability, T/C (second compound 0.0316 µM, first compound 0.1 µM) was 11.7%; the viability, T/C (second compound 0.0316 µM, first compound 0.316 µM) is 11.9%; the viability, T/C (second compound 0.0316 µM, first compound 1 µM) is 10.3%; the viability, T/C (second compound 0.0316 µM, first compound 3.16 µM) was 11.4%; the viability, T/C (second compound 0.0316 µM, first compound 10 µM) is 11.4%. For the same molecule, the viability, T/C is, setting by setting: (second compound 0.1 µM, first compound 0.0316 µM) 22.8%; (second compound 0.1 µM, first compound 0.1 µM) 11.5%; (second compound 0.1 µM, first compound 0.316 µM) 11.6%; (second compound 0.1 µM, first compound 1 µM) 9.19%; (second compound 0.1 µM, first compound 3.16 µM) 12.4%; (second compound 0.1 µM, first compound 10 µM) 11.5%. The viability, T/C by setting is: (second compound 0.316 µM, first compound 0.0316 µM) 23.7%; (second compound 0.316 µM, first compound 0.1 µM) 10.1%; (second compound 0.316 µM, first compound 0.316 µM) 11.9%; (second compound 0.316 µM, first compound 1 µM) 10.4%; (second compound 0.316 µM, first compound 3.16 µM) 12.4%; (second compound 0.316 µM, first compound 10 µM) 11.6%. The viability, T/C is 18.9% (second compound 1 µM, first compound 0.0316 µM); 10.6% (second compound 1 µM, first compound 0.1 µM); 11.8% (second compound 1 µM, first compound 0.316 µM); 10.4% (second compound 1 µM, first compound 1 µM); 11.7% (second compound 1 µM, first compound 3.16 µM); 12.1% (second compound 1 µM, first compound 10 µM). Further, the viability, T/C by setting is: (second compound 3.16 µM, first compound 0.0316 µM) 23.4%; (second compound 3.16 µM, first compound 0.1 µM) 15.5%; (second compound 3.16 µM, first compound 0.316 µM) 11.9%; (second compound 3.16 µM, first compound 1 µM) 11.3%; (second compound 3.16 µM, first compound 3.16 µM) 9.87%; (second compound 3.16 µM, first compound 10 µM) 12.2%. For the same molecule, the viability, T/C by setting is: (second compound 10 µM, first compound 0.0316 µM) 20.2%; (second compound 10 µM, first compound 0.1 µM) 8.63%; (second compound 10 µM, first compound 0.316 µM) 9.73%; (second compound 10 µM, first compound 1 µM) 9.38%; (second compound 10 µM, first compound 3.16 µM) 11.6%; (second compound 10 µM, first compound 10 µM) 12.2%.
`CC1COCCN1c1cc(C2(S(C)(=N)=O)CC2)nc(-c2ccnc3[nH]ccc23)n1` (stereo not drawn): the viability, T/C is 98.7% and 91.8% and 97.2% (compound 0.0316 µM); 84.2% and 100% and 98.6% (compound 0.1 µM); 102% and 104% and 95.6% (compound 0.316 µM); 52.7% and 36.2% and 49% (compound 1 µM); 18.2% and 7.52% and 14.2% (compound 3.16 µM); 6.83% and 5.23% and 6.65% (compound 10 µM). Further, under “curve of compound”, the IC50 is 1080 nM and 775 nM and 990 nM.
`COc1ncnc(C2CC2)c1-c1ncc2cnn(Cc3ccc(-c4nc(C(F)(F)F)cn4C(C)C)cc3)c2n1`: the viability, T/C was 90% and 113% and 103% (compound 0.0316 µM); 95.5% and 108% and 94% (compound 0.1 µM); 90.5% and 94.9% and 102% (compound 0.316 µM); 88.4% and 101% and 105% (compound 1 µM); 96% and 96.8% and 92.5% (compound 3.16 µM); 76.6% and 96.9% and 106% (compound 10 µM). The half-inhibitory concentration (IC50) (curve of compound) was over 10000 nM.

(Values after PubChem BioAssay AID2060512 (Molecular Pharmacology Branch, DTP, NCI, 2025).)
